Assay results from ChEMBL document CHEMBL1201862, “PubChem BioAssay data set” (2004).
Activity calls are given as the source filed them.

Legend:
[1] = inhibitors of clade B AD8 Env fusion, dose response, cell-based, cherry-pick (AID 652062); type: functional;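 further: luciferase signal from cell-cell fusion driven by HIV-1 clade B AD8 Env; potency is for inhibitors of fusion seen as a drop in luminescence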
[2] = target: Voltage-dependent T-type calcium channel subunit alpha-1H (Homo sapiens, UniProt O95180); type: functional;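 further: channel activity triggered by adding a high calcium stimulation buffer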
Voltage-dependent T-type calcium channel subunit alpha-1H, sequence (O95180 whole entry, the tested form may be a part): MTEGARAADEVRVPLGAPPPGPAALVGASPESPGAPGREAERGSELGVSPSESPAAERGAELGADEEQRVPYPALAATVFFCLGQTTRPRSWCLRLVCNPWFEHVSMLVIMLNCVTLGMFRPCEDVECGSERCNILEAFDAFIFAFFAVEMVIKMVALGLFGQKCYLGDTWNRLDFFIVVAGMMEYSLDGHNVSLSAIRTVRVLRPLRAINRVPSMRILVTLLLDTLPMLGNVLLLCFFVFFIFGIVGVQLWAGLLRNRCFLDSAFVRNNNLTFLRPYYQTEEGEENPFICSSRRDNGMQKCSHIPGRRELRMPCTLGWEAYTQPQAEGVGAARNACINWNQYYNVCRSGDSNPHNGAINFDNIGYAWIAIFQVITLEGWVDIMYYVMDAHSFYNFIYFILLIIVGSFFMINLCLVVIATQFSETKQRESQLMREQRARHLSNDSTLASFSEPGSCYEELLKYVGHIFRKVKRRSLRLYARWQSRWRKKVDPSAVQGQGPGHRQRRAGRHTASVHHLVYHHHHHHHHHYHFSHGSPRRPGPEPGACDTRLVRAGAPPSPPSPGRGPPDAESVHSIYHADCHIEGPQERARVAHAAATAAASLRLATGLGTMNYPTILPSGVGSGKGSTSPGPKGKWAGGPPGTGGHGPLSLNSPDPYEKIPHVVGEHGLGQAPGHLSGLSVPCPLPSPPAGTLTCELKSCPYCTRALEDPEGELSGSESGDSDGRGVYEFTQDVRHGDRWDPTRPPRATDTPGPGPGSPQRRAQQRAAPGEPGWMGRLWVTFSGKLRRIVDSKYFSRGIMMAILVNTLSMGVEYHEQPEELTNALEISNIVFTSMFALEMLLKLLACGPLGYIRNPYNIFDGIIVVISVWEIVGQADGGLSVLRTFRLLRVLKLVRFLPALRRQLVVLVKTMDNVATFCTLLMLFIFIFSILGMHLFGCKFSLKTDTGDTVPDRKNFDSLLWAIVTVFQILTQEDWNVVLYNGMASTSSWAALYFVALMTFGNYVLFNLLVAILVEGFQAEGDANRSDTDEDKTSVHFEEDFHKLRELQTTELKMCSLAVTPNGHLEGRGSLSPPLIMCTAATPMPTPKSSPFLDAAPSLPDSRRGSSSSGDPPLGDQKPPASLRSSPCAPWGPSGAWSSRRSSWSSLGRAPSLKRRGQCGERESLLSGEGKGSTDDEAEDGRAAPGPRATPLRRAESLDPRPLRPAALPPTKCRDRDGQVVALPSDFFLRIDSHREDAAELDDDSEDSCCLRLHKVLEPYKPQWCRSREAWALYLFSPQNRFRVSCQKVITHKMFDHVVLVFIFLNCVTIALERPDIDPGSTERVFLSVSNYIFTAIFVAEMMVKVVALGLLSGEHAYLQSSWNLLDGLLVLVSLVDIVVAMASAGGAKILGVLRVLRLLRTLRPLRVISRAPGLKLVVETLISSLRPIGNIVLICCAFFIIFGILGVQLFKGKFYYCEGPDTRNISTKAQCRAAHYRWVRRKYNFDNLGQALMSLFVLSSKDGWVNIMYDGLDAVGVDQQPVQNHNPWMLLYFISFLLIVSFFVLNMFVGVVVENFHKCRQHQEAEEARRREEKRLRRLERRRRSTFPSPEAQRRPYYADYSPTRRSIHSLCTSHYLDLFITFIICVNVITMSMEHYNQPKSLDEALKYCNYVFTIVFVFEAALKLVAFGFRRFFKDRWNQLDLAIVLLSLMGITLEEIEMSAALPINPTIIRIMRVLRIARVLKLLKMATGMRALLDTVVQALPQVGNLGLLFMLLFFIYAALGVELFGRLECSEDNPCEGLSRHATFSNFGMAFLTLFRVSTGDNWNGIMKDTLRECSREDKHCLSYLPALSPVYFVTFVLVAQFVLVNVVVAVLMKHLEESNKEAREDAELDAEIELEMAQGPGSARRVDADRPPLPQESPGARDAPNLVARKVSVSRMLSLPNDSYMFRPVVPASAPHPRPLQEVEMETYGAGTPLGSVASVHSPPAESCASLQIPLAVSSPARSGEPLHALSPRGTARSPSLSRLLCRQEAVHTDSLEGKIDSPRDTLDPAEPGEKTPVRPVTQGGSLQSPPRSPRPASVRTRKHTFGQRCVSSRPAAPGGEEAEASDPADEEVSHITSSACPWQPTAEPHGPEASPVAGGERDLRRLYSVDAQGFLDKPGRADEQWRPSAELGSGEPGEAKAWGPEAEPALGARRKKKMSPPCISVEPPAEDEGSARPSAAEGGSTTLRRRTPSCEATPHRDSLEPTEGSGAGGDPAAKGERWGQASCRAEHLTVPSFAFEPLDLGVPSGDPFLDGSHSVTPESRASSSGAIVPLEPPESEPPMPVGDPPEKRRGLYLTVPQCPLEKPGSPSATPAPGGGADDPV

[3] = inhibitors of HIV Env-driven cell fusion, dose response, cherry-pick (AID 652057); type: functional, cell-based
[4] = CEM21 lymphoblast cell cytotoxicity, dose response, cytotoxicity control for viral fusion inhibitor project, CellTiter-Glo luminescence, cherry-picked (AID 652042); type: functional, cell-based;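 further: potency for signal decrease meaning cytotoxicity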
[5] = tested on: HEK293; assay: cells; type: functional, cell-based; details: Homo sapiens
[6] = tested on: HEK293; assay: cells; type: functional, cell-based; details: Homo sapiens; remark: listed apart in the source
[7] = tested on: HEK293; assay: NOD2 signaling inhibitors in MDP-stimulated cells, cell-based, uHTS, luminescence (AID 2001); type: functional; details: Homo sapiens
[8] = tested on: HEK293; assay: NOD1 signaling inhibitors, primary screen, cell-based, luminescence, uHTS (AID 1578); type: functional; details: Homo sapiens
[9] = target: T1, Ubiquitin-conjugating enzyme E2 N (Homo sapiens, UniProt P61088); type: functional;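 further: Dose-response confirmation in a TR-FRET assay detecting UBC13-driven polyubiquitin chain formation, inhibition measured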
T1 sequence (P61088 whole entry): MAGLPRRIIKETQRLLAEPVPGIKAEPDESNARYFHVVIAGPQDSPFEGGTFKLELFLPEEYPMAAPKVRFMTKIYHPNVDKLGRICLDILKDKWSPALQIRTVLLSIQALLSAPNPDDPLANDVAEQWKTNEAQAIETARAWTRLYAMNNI

[10] = target: T2, Protein RecA (Mycobacterium tuberculosis, UniProt P9WHJ3); assay: Fluorescence Cell-Free Homogeneous Dose Retest to Identify Inhibitors of RecA-Intein Splicing Activity. [Related pubchem assays (depositor defined):AID2097, AID2223, AID489010, AID492950]; type: functional
T2 sequence (P9WHJ3 whole entry): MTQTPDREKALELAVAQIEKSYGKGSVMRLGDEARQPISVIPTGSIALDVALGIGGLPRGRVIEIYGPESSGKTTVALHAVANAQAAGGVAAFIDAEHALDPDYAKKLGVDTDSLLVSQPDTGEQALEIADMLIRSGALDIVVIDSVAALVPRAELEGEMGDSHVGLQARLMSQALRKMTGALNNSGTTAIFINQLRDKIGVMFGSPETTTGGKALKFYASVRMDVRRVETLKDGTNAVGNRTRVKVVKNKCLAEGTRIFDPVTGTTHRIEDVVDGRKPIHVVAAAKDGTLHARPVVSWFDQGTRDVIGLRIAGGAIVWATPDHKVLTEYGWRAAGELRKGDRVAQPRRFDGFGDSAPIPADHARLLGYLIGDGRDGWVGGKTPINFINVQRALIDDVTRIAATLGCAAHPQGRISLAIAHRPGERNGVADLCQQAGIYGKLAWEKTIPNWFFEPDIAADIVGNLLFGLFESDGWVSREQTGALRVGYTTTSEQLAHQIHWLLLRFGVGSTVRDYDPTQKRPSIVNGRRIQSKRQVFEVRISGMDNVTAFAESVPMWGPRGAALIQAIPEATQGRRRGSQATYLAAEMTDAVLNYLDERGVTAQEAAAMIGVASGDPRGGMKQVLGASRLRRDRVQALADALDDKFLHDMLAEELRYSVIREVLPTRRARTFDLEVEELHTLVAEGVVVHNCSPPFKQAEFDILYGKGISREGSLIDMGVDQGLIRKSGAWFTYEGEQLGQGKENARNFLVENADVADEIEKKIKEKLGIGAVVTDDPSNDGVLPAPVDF

[11] = target: T3, Aminopeptidase N (Plasmodium falciparum FcB1/Columbia, UniProt O96935); assay: P. falciparum M1AAP inhibitors, biochemical, fluorogenic H-Leu-NHMec substrate, 1536-well (AID 1445); parameters: species or system Plasmodium falciparum 3D7, 3D7
T3 sequence (O96935 whole entry): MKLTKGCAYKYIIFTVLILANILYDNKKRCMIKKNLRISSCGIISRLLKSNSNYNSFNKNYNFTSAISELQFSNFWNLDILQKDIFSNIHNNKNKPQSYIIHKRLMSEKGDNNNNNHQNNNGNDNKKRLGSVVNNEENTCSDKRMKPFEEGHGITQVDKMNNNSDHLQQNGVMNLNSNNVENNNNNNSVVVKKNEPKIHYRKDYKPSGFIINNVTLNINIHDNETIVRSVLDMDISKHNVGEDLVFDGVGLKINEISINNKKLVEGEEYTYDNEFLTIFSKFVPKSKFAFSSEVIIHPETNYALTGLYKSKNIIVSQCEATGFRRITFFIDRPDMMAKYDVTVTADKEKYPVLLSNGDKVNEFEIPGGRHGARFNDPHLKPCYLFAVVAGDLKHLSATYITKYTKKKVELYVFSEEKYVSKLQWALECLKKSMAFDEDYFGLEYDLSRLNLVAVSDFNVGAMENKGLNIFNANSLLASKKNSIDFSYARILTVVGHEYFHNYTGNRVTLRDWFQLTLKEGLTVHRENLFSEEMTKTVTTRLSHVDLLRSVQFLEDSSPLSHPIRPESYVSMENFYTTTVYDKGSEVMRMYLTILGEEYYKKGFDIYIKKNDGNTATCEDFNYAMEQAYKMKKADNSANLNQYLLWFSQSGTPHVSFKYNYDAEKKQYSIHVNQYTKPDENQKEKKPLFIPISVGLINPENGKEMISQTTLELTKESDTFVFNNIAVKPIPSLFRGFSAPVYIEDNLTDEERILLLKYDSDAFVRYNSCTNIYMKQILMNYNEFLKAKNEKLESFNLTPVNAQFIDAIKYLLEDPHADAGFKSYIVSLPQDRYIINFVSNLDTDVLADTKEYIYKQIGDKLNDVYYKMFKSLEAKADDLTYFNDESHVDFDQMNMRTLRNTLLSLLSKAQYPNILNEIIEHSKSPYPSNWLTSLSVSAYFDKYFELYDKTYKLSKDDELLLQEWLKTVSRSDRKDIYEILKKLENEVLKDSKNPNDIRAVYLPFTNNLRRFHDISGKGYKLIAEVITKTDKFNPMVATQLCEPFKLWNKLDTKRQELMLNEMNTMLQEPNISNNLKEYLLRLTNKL

[12] = target: T4, Replicative DNA helicase DnaB (Mycobacterium tuberculosis, UniProt P9WMR3); assay: DnaB intein splicing inhibitors, dose response, biochemical, cell-free fluorescence (AID 449749); type: functional
T4 sequence (P9WMR3 whole entry): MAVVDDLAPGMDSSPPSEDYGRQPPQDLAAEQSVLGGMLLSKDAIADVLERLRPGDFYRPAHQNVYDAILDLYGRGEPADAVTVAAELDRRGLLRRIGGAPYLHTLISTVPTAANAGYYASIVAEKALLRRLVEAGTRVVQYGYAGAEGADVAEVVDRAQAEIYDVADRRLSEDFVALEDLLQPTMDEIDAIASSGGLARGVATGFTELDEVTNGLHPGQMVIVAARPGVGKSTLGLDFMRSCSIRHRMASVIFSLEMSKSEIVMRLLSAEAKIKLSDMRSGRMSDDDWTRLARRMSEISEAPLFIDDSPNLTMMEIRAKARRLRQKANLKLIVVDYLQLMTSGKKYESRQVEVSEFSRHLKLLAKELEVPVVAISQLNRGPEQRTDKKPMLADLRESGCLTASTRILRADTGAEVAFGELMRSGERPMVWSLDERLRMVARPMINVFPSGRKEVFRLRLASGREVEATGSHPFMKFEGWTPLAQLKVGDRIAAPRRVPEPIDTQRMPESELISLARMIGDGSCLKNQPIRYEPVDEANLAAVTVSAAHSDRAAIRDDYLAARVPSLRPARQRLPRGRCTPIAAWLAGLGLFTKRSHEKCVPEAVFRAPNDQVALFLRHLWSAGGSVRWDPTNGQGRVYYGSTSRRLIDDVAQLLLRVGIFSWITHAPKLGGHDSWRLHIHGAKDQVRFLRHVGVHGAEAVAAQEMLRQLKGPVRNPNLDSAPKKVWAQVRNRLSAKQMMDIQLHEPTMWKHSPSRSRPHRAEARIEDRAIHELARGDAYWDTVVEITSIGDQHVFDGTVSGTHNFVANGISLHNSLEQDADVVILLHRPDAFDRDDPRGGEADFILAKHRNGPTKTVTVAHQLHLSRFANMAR

[13] = target: Glyceraldehyde-3-phosphate dehydrogenase (Homo sapiens, UniProt P04406)
Glyceraldehyde-3-phosphate dehydrogenase, sequence (P04406 whole entry): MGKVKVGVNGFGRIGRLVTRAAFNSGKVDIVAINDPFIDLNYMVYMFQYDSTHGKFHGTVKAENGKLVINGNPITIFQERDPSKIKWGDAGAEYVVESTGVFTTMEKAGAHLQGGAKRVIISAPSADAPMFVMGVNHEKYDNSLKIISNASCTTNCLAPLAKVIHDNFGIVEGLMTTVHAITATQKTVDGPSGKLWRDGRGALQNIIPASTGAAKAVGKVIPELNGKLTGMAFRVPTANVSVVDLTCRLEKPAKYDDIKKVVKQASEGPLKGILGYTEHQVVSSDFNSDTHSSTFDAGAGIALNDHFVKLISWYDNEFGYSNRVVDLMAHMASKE

[14] = target: T5, Alkaline phosphatase, tissue-nonspecific isozyme (Homo sapiens, UniProt P05186); assay: human TNAP enzyme inhibitors, SAR follow-up, biochemical, luminescent, dose response (AID 1056)
T5 sequence (P05186 whole entry): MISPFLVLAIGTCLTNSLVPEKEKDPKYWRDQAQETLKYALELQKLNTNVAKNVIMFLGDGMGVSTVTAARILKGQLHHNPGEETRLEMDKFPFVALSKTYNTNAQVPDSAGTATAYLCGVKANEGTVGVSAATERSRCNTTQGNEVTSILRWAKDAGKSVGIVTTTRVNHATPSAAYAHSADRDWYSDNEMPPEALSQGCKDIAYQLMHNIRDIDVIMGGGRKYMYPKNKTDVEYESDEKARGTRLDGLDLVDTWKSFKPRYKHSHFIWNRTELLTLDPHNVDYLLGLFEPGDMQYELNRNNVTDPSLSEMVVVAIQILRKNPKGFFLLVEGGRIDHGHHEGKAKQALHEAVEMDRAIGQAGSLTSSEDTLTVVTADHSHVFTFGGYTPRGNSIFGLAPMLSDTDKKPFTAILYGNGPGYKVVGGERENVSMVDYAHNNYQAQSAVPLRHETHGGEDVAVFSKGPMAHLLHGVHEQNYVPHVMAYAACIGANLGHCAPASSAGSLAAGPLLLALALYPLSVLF

[15] = target: Cytochrome P450 3A4 (Homo sapiens, UniProt P08684); details: Potency;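 further: confirmatory qHTS run detecting inhibitors and substrates of CYP3A4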
Cytochrome P450 3A4, sequence (P08684 whole entry): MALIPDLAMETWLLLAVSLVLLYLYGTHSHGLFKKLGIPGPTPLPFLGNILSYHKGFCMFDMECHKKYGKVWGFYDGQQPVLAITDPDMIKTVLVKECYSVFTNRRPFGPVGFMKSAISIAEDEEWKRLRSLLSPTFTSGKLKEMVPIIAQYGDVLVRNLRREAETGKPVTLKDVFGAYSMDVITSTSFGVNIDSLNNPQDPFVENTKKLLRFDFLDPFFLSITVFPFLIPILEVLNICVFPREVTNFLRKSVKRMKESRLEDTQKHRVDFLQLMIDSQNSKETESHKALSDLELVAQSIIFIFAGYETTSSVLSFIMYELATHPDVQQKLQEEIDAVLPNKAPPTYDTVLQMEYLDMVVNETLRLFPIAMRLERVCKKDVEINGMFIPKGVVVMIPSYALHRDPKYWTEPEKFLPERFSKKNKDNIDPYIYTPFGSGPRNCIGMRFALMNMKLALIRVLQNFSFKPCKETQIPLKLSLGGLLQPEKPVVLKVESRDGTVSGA

[16] = THP-1 cell cytotoxicity, dose response, cytotoxicity control for non-replicating M. tuberculosis project (AID 489025); type: functional
[17] = HepG2 cell cytotoxicity, dose response, cytotoxicity control for non-replicating M. tuberculosis project (AID 489018); type: functional; details: Mycobacterium tuberculosis
[18] = cells; type: functional

With Cc1cccc(N2CCN(C(=O)CCCSc3nc4ccccc4[nH]3)CC2)c1C the AC50 [1] was 12.3 µM (active), the EC50 [2] was 5.23 µM (active) and the AC50 [3] was 46.1 µM (active). For the same molecule, the AC50 [4] was 50.8 µM (active).
For CN(C(=O)C(C)(C)C)c1ccc(OCC(=O)N2CCc3ccccc3C2)cc1, the IC50 [5] was > 20 µM (inactive), the IC50 [6] was 12.9 µM (active) and the IC50 [7] was 18.1 µM (inactive). For the same molecule, the EC50 [8] was 4.6 µM (active).
In the case of COc1ccc(C[C@H]2CN3C(=NC[C@@H]3Cc3ccc(O)cc3)N2C[C@H](C)NC(=O)c2ccc(C)c(Br)c2)cc1, the IC50 [9] is reported as > 20 µM (inactive).
For COc1cc(Br)c(C2C(C#N)=C(N)Oc3[nH]nc(-c4cccnc4)c32)cc1OC (centres undefined), the EC50 [10] was 8.6 µM (active), the IC50 [11] was 44.6 µM (active) and the AC50 [12] was 35 µM (active).
With COc1ccc(S(=O)(=O)Nc2cccnc2)cc1OC the IC50 [13] was > 100 µM (not active) and the IC50 [14] was > 100 µM (inactive).
In the case of CCCN1[C@@H]2C[C@@H](O)CC[C@@H]2C[C@H]1C(=O)OC, the AC50 [15] is reported as 25.1 µM (inconclusive).
In the case of COc1ccc(-c2csc(NC(=O)C3=NN(c4ccccc4)C(=O)CC3)n2)cc1, the IC50 [5] is reported as 17.5 µM (active), the IC50 [6] is reported as 5.51 µM (active) and the IC50 [7] is reported as 5.67 µM (inactive). The EC50 [8] was 15.7 µM (active).
In the case of C=CCc1ccc(OCC(O)COc2ccc(CC=C)cc2OC)c(OC)c1, the EC50 [2] is reported as 6.12 µM (active).
For COc1cc(/C=C/C(=O)c2cccs2)cc(OC)c1OC, the AC50 [15] was 3.16 µM (inconclusive).
With c1ccc(-c2cc3c(nc2-c2ccccc2)CCNC3)cc1 the AC50 [15] was 5.01 µM (inconclusive).
In the case of Cc1ccc(-n2ncc(C(=O)NCc3ccc4c(c3)OCO4)c2NC(=O)c2ccco2)cc1C, the EC50 [2] is reported as 1.89 µM (active).
For COc1ccc(-c2csc(NC(C)c3nc4cc(C(=O)NCCCO)ccc4n3Cc3ccc(C)cc3)n2)cc1 (centres undefined), the IC50 [9] was > 20 µM (inactive).
In the case of CC(/C=C/c1ccco1)=N\NC(=O)c1cccc(Cl)c1, the CC50 [16] is reported as > 40 µM (active), the CC50 [17] is reported as > 20 µM (active) and the IC50 [18] is reported as 6.09 µM (active).
For Cc1ccc(-c2cc(C(=O)O)[nH]n2)cc1, the IC50 [13] was > 100 µM (not active) and the IC50 [14] was 8.71 µM (active).
